This is an account of results in patent US8883836B2, “Solid forms of bendamustine hydrochloride” (Cephalon, Inc., priority 2008, dated 2014).

The series is described as follows: Gravimetric Vapor Sorption (GVS). Type of series: physicochemical. How it is done:
Gravimetric Vapor Sorption (GVS)
Sorption isotherms were obtained using a Hiden IGASorp moisture sorption analyser, controlled by CFRSorp software. The sample temperature was maintained at 25° C. by a Huber recirculating water bath. The humidity was controlled by mixing streams of dry and wet nitrogen, with a total flow rate of 250 ml·min-1. The relative humidity was measured by a calibrated Vaisala RH probe (dynamic range of 0-95% RH), located near the sample. The weight change, (mass relaxation) of the sample as a function of % RH was constantly monitored by themicrobalance (accuracy ±0.001 mg). Typically 1-3 mg of sample was placed in a tared mesh stainless steel basket under ambient conditions. The sample was loaded and unloaded at 40% RH and 25° C. (typical room conditions). A moisture sorption isotherm was performed as outlined below (2 scans giving 1 complete cycle). The standard isotherm was performed at 25° C. at 10% RH intervals over a 0-90% RH range.
The software uses a least squares minimization procedure together with a model of the mass relaxation, to predict an asymptotic value. The measured mass relaxation value must be within 5% of that predicted by the software before the next % RH value is selected. The minimum equilibration time was set to 1 hour and the maximum to 4 hours.

With `Cl.Cn1c(CCCC(=O)O)nc2cc(N(CCCl)CCCl)ccc21` [Form 1, bendamustine hydrochloride], the hygroscopicity entry (GVS, 0 to 90% RH) is reported as “low hygroscopicity”. The “weight increase (hygroscopicity)” value (between 0 and 90% relative humidity (RH)) came to 0.7%. The “solid form by XRPD re-analysis after GVS humidity cycles” value (reanalysis under ambient conditions, hydrochloride) is given as “did not lead to a significant change in XRPD pattern”.
